Source: patent US9011965B2, “Gradient coating for biomedical applications” (Smith & Nephew, Inc., priority 2008, dated 2015)

Test: release of bupivacaine from coated samples in PBS, spectrophotometry at 265 nm
Format: physicochemical
Conditions: released from coated samples, 3 mL PBS, 37° C.
Procedure: The release of Ag, Ca, and Bupivacaine from the prepared coating was confirmed by ICP analysis and UV spectrometry, respectively. The coated samples were immersed in 3 mL PBS for 24 and 48 hours at 37° C. At each time point, the release of bupivacaine was measured spectrophotometrically (Nanodrop, Thermo) at 265 nm. The Bupivacaine standard was prepared by dissolving appropriate amounts of the drug in PBS. PBS was used as blank.

Bupivacaine Concentration in PBS (24 hours): 126 ppm
Bupivacaine Concentration in PBS (48 hours): 141 ppm
SMILES: CCCCN1CCCCC1C(=O)Nc1c(C)cccc1C (centres unmarked) [Bupivacaine]
